Literature values, collected in US7893091B2, “Combination therapy for the treatment of urinary frequency, urinary urgency and urinary incontinence” (Merck Sharp & Dohme Corp., priority 2005, dated 2011).

Assays:
rats [1] = test system: rats
C-fibers [2] = settings: instilled directly into the bladder
rats [3] = test system: rats; remark: listed apart in the source
C-fibers [4] = settings: more potent than capsaicin
isolated bladder strips = settings: tissue bath

C[C@H](Cc1ccc2c(c1)OC(C(=O)[O-])(C(=O)[O-])O2)NC[C@H](O)c1cccc(Cl)c1.[Na+].[Na+] [CL316243]
voiding interval in the hyperreflexia paradigms (rats [1]; administered intravenously): dose-dependently normalizes voiding interval | spontaneous bladder contractions in the detrusor instability paradigm (rats [1]; administered orally): dose-dependent inhibition | bladder pressure (rats [1]; intravenous administration): reduces bladder pressure | bladder capacity in cystomeric studies (rats [1]; intravenous administration, prolongation of micturition interval without increasing residual urine volume): increases bladder capacity

COc1cc(CNC(=O)CCCC/C=C/C(C)C)ccc1O [Capsaicin]
beneficial effects (i.e. increased bladder capacity), share of patients (C-fibers [2]): ~70 % of patients

COc1ccccc1CC(=N)N1C[C@@H]2C(=O)CCC(c3ccccc3)(c3ccccc3)[C@@H]2C1 [RP 67580]
volume threshold in cyclophosphamide-induced model of bladder overactivity (rats [3]; rats, i.t. versus i.v. administration): increased the volume threshold after i.t., but not i.v. administration

C=C(C)[C@]12C[C@@H](C)[C@@]34O[C@](Cc5ccccc5)(O[C@@H]1[C@@H]3C=C(COC(=O)Cc1ccc(O)c(OC)c1)C[C@]1(O)C(=O)C(C)=C[C@@H]41)O2 [Resinferatoxin]
potency relative to capsaicin (C-fibers [4]): ~100 fold

CC(=O)NC1(c2ccccc2)CCN(CC[C@H](CN(C)C(=O)c2ccccc2)c2ccc(Cl)c(Cl)c2)CC1 [SR 48968]
response in cyclophosphamide-induced model of bladder overactivity (rats [3]; 10 nmol/rat): moderate response

Cc1ccc(-c2c3n(c(=O)c4ncccc24)CC[C@@H](C)CN(Cc2cc(C(F)(F)F)cc(C(F)(F)F)c2)C3=O)cc1 [TAK-637]
micturition reflex induced by electrical stimulation of the rostral brainstem near the locus coeruleus (decerebrate cats; 3 mg/kg i.v.): did not inhibit | voiding efficiency (decerebrate cats; decerebrate cats, 0.1, 0.3, 1 and 3 mg/kg i.v.): without any significant reduction | increase in bladder capacity (maximal increase) (decerebrate cats; decerebrate cats, 0.1, 0.3, 1 and 3 mg/kg i.v., dose-dependent): 94% | micturition reflex induced by topical application of capsaicin onto the surface of the bladder dome (guinea pig): inhibited | distension-induced rhythmic bladder contractions (guinea pig; systemic administration): decreased the number but not the amplitude | carbachol or electrical field stimulation induced contractions of isolated bladder strips (isolated bladder strips): had no effect
